In publication PMC8746970, “Determination of the Peptide AWRK6 in Rat Plasma by Liquid Chromatography-Tandem Mass Spectrometry (LC-MS/MS) and Its Application to Pharmacokinetics” (Molecules, 2021):
Like-named read-outs stand apart in the source and are kept apart here. No end group written: not given here.

Experiment: Pharmacokinetic study of AWRK6 in rats after intraperitoneal or intravenous injection, plasma LC-MS/MS
Format: in vivo, rat
Conditions: for AUC(0-inf) / Cmax / Tmax / CL/F / MRT / Vd/F / half-life / AUC(0-t) / bioavailability: rat; for CL/F: read-out: CLz/F (converted); for MRT: read-out: MRT(0–t); for Vd/F: read-out: Vz/F; for half-life: read-out: t1/2z (converted); for bioavailability: from AUC, read-out: F (absolute bioavailability)
Description: The samples were analyzed on a LC-MS/MS system consisting of an Agilent 1290 Infinity II UHPLC System coupled with an Agilent 6460 Triple Quadrupole Mass Spectrometer with an electrospray ionisation source (ESI). The Agilent MassHunter Workstation Qualitative Analysis B.06.00 (Agilent Technologies, Santa Clara, CA, USA) software was used. Chromatographic separation was performed on a Supersil ODS2 column (4.6 mm × 250 mm, 5 μm, Dalian Elite Analytical Instruments, Dalian, China). The separation conditions were 30 °C by using a FA-ACN (0.1:99.9, v/v, A) and FA-water (0.1:99.9, v/v, B) solutions at a flow rate of 0.5 mL/min. The sample injection volume was 20 μL and the autosampler was kept at 4 °C. The initial eluent A-B (20:80, v/v) was changed to A-B (30:70, v/v) in 4 min and subsequently changed to A-B (90:10, v/v) in the next 3 min in a linear gradient form and maintained at this ratio for another 1 min. PMB was used as the IS. MS analysis was carried out in the multiple reaction monitoring (MRM) mode with following operation parameters: capillary voltage, 3.5 kV; gas temperature, 325 °C; nebulizer gas pressure, 35 psi; sheath gas, 11 L/min, 350 °C; fragmentor voltages, 155 V for AWRK6 and 75 V for IS; collision energy (CE), 80 eV for AWRK6 and 40 eV for IS; precursor-to-product ion transition, m/z: 533.3→84.1 for AWRK6 and m/z: 402.1→101.1 for IS.
The AWRK6 and IS were dissolved in water at 1.0 mg/mL for stock solution. The AWRK6 calibration standards at 0.05, 0.1, 0.5, 1, 2, 5, and 10 μg/mL were prepared by mixing 50 μL of working solution and 100 μL of blank plasma individually. QC samples of AWRK6 at 0.1, 0.5, and 5 μg/mL were prepared by the same method. The thawed plasma samples (100 μL) were mixed with 50 μL water (or QC), 50 μL IS (1 μg/mL), and 20 μL FA-water (25:75, v/v). A combination of plasma precipitation and liquid–liquid extraction was applied for the extraction of AWRK6 in samples. After adding 200 μL methanol and 100 μL dichloromethane, the mixtures were vortexed for 30 s and centrifuged at 14,000 g for 10 min. The supernatant was filtered by 0.22 μm membrane for LC-MS/MS analysis.
SPF-grade male Sprague Dawley rats (280–320 g, 8 weeks old) were purchased from Liaoning Changsheng Biotechology (Liaoning, China). The rats were housed under a controlled environment (temperature: 25 ± 2 °C; relative humidity: 55 ± 10%; alternating natural light/dark cycles) with free access to food and water unless otherwise noted. The study was approved by the Laboratory Animal Welfare and Ethical Review Board of China Medical University (CMU2019089, 8 March 2019). According to the previous study, the rats was administrated with AWRK6 dissolved in saline intraperitoneally at 2.35, 4.7, and 9.4 mg/kg bodyweight and intravenously at 4.7 mg/kg after being fasted for 12 h. The intravenous doing was administered via the tail vein of the rats. Blood samples were collected from orbital venous plexus at 0.083, 0.167, 0.25, 0.5, 1, 1.5, 2, 3, 4, 6, 8, and 10 h using heparin tubes after administration, followed by centrifugation at 4000 g for 10 min at 4 °C and storage at −80 °C. The obtained data were analyzed using DAS 2.0 software (Anhui Provincial Center for Drug Clinical Evaluation). The absolute bioavailability of AWRK6 for intraperitoneal administration was calculated by the following formula:(1) F=AUCi.p.×Di.v./Di.p.×AUCi.v.×100%

[1] = male Sprague Dawley rats, single i.v. 4.700 mg/kg (tail vein), plasma, LC-MS/MS, mean ± SD, n = 6
[2] = ip, 2.35 mg/kg, male Sprague Dawley rats, single i.p. 2.350 mg/kg, plasma, LC-MS/MS, mean ± SD, n = 6
[3] = ip, 4.7 mg/kg, male Sprague Dawley rats, single i.p. 4.700 mg/kg, plasma, LC-MS/MS, mean ± SD, n = 6
[4] = ip, 9.4 mg/kg, male Sprague Dawley rats, single i.p. 9.400 mg/kg, plasma, LC-MS/MS, mean ± SD, n = 6
[5] = iv, 4.7 mg/kg, male Sprague Dawley rats, single i.v. 4.700 mg/kg (tail vein), plasma, LC-MS/MS, mean ± SD, n = 6
[6] = rats, two-compartment model, weight coefficient of 1, DAS 2.0

VRT(0–t) (male Sprague Dawley rats, single i.p. 2.350 mg/kg, plasma, LC-MS/MS, mean ± SD, n = 6): 2.549 ± 1.480 h^2 | VRT(0–t) (male Sprague Dawley rats, single i.p. 4.700 mg/kg, plasma, LC-MS/MS, mean ± SD, n = 6): 3.859 ± 0.904 h^2 | VRT(0–t) (male Sprague Dawley rats, single i.p. 9.400 mg/kg, plasma, LC-MS/MS, mean ± SD, n = 6): 4.366 ± 1.439 h^2 | CLz/F [1]: 28.32 ± 3.65 mL/min/kg | Vz/F [1]: 4.884 ± 1.736 L/kg | AUC(0-inf) [2]: 851 ± 221 ng·h/mL | Cmax [2]: 217 ± 10 ng/mL | Tmax [2]: 1.17 ± 0.258 h | CL/F [2]: 48 mL/min/kg | MRT [2]: 2.26 ± 0.488 h | Vd/F [2]: 10.9 ± 3.96 L/kg | half-life [2]: 2.95 ± 2.05 h | AUC(0-inf) [3]: 1590 ± 275 ng·h/mL | AUC(0-t) [3]: 1360 ± 176 ng·h/mL | Cmax [3]: 454 ± 48 ng/mL | Tmax [3]: 1.25 ± 0.274 h | CL/F [3]: 50.6 mL/min/kg | MRT [3]: 2.49 ± 0.227 h | Vd/F [3]: 12.3 ± 4.85 L/kg | half-life [3]: 2.94 ± 1.4 h | AUC(0-inf) [4]: 2910 ± 356 ng·h/mL | AUC(0-t) [4]: 2630 ± 236 ng·h/mL | Cmax [4]: 888 ± 46 ng/mL | Tmax [4]: 1.21 ± 0.217 h | CL/F [4]: 54.4 mL/min/kg | MRT [4]: 2.52 ± 0.292 h | Vd/F [4]: 12.7 ± 3.37 L/kg | half-life [4]: 2.78 ± 1.02 h | AUC(0-inf) [5]: 2800 ± 333 ng·h/mL | AUC(0-t) [5]: 2600 ± 277 ng·h/mL | Cmax [5]: 2130 ± 174 ng/mL | MRT [5]: 1.73 ± 0.261 h | half-life [5]: 1.98 ± 0.583 h | bioavailability (plasma, ip, 2.35 mg/kg, male Sprague Dawley rats, i.p. 2.350 mg/kg versus i.v. 4.700 mg/kg): 48.8% | bioavailability (plasma, ip, 4.7 mg/kg, male Sprague Dawley rats, i.p. 4.700 mg/kg versus i.v. 4.700 mg/kg): 52.5% | bioavailability (plasma, ip, 9.4 mg/kg, male Sprague Dawley rats, i.p. 9.400 mg/kg versus i.v. 4.700 mg/kg): 50.6% | time after which plasma concentration was below the LLOQ (rats, after intraperitoneal injection, LLOQ 0.050 μg/mL): ~10 h | time at which AWRK6 in plasma was cleared (rats, after intravenous injection 4.7 mg/kg): about 10 h | time at which AWRK6 concentrations in rat plasma peaked (rats, intraperitoneal injections at 2.35, 4.7 and 9.4 mg/kg bodyweight): about 1.2 h | transport rate constant K12 [6]: 2.55 h⁻¹ | transport rate constant K21 [6]: 1.67 h⁻¹
Substance: SWVGKHGKKFGLKKHKKH-NH2 (C-terminus assumed) [AWRK6]
